System: 565726-208-R1-J5-PDC complex spheroids, growth inhibition
Experiment: Anticancer human tumor 565726-208-R1-J5-PDC patient-derived pancreatic adenocarcinoma cell line growth inhibition [RAS]
Conditions: for IC50: curve of first compound; for viability, T/C: stronger effect = lower value
How it was run: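 Multi-cell-type spheroids: tumor cells plus HUVEC endothelial cells and mesenchymal stem cells. RAS-pathway inhibitors were combined with targeted agents, each dosed in half-log steps down from clinical Cmax, or from 10 microM when Cmax was unknown.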

[1] = second compound 0.000949 µM, first compound 0.00316 µM
[2] = second compound 0.000949 µM, first compound 0.01 µM
[3] = second compound 0.000949 µM, first compound 0.0316 µM
[4] = second compound 0.000949 µM, first compound 0.1 µM
[5] = second compound 0.000949 µM, first compound 0.316 µM
[6] = second compound 0.000949 µM, first compound 1 µM
[7] = second compound 0.003 µM, first compound 0.00316 µM
[8] = second compound 0.003 µM, first compound 0.01 µM
[9] = second compound 0.003 µM, first compound 0.0316 µM
[10] = second compound 0.003 µM, first compound 0.1 µM
[11] = second compound 0.003 µM, first compound 0.316 µM
[12] = second compound 0.003 µM, first compound 1 µM
[13] = second compound 0.00949 µM, first compound 0.00316 µM
[14] = second compound 0.00949 µM, first compound 0.01 µM
[15] = second compound 0.00949 µM, first compound 0.0316 µM
[16] = second compound 0.00949 µM, first compound 0.1 µM
[17] = second compound 0.00949 µM, first compound 0.316 µM
[18] = second compound 0.00949 µM, first compound 1 µM
[19] = second compound 0.03 µM, first compound 0.00316 µM
[20] = second compound 0.03 µM, first compound 0.01 µM
[21] = second compound 0.03 µM, first compound 0.0316 µM
[22] = second compound 0.03 µM, first compound 0.1 µM
[23] = second compound 0.03 µM, first compound 0.316 µM
[24] = second compound 0.03 µM, first compound 1 µM
[25] = second compound 0.0949 µM, first compound 0.00316 µM
[26] = second compound 0.0949 µM, first compound 0.01 µM
[27] = second compound 0.0949 µM, first compound 0.0316 µM
[28] = second compound 0.0949 µM, first compound 0.1 µM
[29] = second compound 0.0949 µM, first compound 0.316 µM
[30] = second compound 0.0949 µM, first compound 1 µM
[31] = second compound 0.3 µM, first compound 0.00316 µM
[32] = second compound 0.3 µM, first compound 0.01 µM
[33] = second compound 0.3 µM, first compound 0.0316 µM
[34] = second compound 0.3 µM, first compound 0.1 µM
[35] = second compound 0.3 µM, first compound 0.316 µM
[36] = second compound 0.3 µM, first compound 1 µM
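Also: spheroids exposed to compounds for seven days before readout.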
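For viability, T/C in this document: 100% = DMSO vehicle control viability.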

C=CC(=O)Nc1cc(Nc2nccc(-c3cn(C)c4ccccc34)n2)c(OC)cc1N(C)CCN(C)C + CCn1c(-c2cc(N3CCN(C)CC3)cnc2C(C)OC)c2c3cc(ccc31)-c1csc(n1)CC(NC(=O)C1CC1C)C(=O)N1CCCC(N1)C(=O)OCC(C)(C)C2
IC50 (second compound 0.000949 µM): 185 nM
IC50 (second compound 0.003 µM): 11 nM
IC50 (second compound 0.00949 µM): < 3.16 nM
IC50 (second compound 0.03 µM): < 3.16 nM
IC50 (second compound 0.0949 µM): < 3.16 nM
IC50 (second compound 0.3 µM): < 3.16 nM
viability, T/C [1]: 63.2%
viability, T/C [2]: 62.6%
viability, T/C [3]: 59.9%
viability, T/C [4]: 56.4%
viability, T/C [5]: 44.6%
viability, T/C [6]: 34.3%
viability, T/C [7]: 58.9%
viability, T/C [8]: 44.3%
viability, T/C [9]: 49.2%
viability, T/C [10]: 38.8%
viability, T/C [11]: 36.1%
viability, T/C [12]: 28.2%
viability, T/C [13]: 43.2%
viability, T/C [14]: 38.3%
viability, T/C [15]: 34.9%
viability, T/C [16]: 30.9%
viability, T/C [17]: 24.7%
viability, T/C [18]: 20.4%
viability, T/C [19]: 30.4%
viability, T/C [20]: 30.1%
viability, T/C [21]: 29.6%
viability, T/C [22]: 25.1%
viability, T/C [23]: 19%
viability, T/C [24]: 15.5%
viability, T/C [25]: 28.3%
viability, T/C [26]: 24.6%
viability, T/C [27]: 21.4%
viability, T/C [28]: 18.2%
viability, T/C [29]: 16.4%
viability, T/C [30]: 14.7%
viability, T/C [31]: 23.4%
viability, T/C [32]: 21.2%
viability, T/C [33]: 18.8%
viability, T/C [34]: 16.3%
viability, T/C [35]: 15.5%
viability, T/C [36]: 11.6%

O=C(c1ccc(F)c(F)c1Nc1ccc(I)cc1F)N1CC(O)([C@@H]2CCCCN2)C1 + CCn1c(-c2cc(N3CCN(C)CC3)cnc2C(C)OC)c2c3cc(ccc31)-c1csc(n1)CC(NC(=O)C1CC1C)C(=O)N1CCCC(N1)C(=O)OCC(C)(C)C2
IC50 (second compound 0.000949 µM): 103 nM
IC50 (second compound 0.003 µM): 10.2 nM
IC50 (second compound 0.00949 µM): < 3.16 nM
IC50 (second compound 0.03 µM): < 3.16 nM
IC50 (second compound 0.0949 µM): < 3.16 nM
IC50 (second compound 0.3 µM): < 3.16 nM
viability, T/C [1]: 66.8%
viability, T/C [2]: 59.9%
viability, T/C [3]: 63.8%
viability, T/C [4]: 49.5%
viability, T/C [5]: 29.4%
viability, T/C [6]: 9.76%
viability, T/C [7]: 55.3%
viability, T/C [8]: 49.6%
viability, T/C [9]: 40.7%
viability, T/C [10]: 25.4%
viability, T/C [11]: 14%
viability, T/C [12]: 6.79%
viability, T/C [13]: 39.3%
viability, T/C [14]: 36.5%
viability, T/C [15]: 27.8%
viability, T/C [16]: 16.7%
viability, T/C [17]: 7.84%
viability, T/C [18]: 4.42%
viability, T/C [19]: 23.9%
viability, T/C [20]: 23.5%
viability, T/C [21]: 18.2%
viability, T/C [22]: 8.87%
viability, T/C [23]: 4.75%
viability, T/C [24]: 4.55%
viability, T/C [25]: 17.6%
viability, T/C [26]: 12.8%
viability, T/C [27]: 8.13%
viability, T/C [28]: 5.18%
viability, T/C [29]: 4.88%
viability, T/C [30]: 4.22%
viability, T/C [31]: 14.9%
viability, T/C [32]: 12.6%
viability, T/C [33]: 6.29%
viability, T/C [34]: 4%
viability, T/C [35]: 3.7%
viability, T/C [36]: 3.03%

Source: PubChem BioAssay AID2060899 (Molecular Pharmacology Branch, DTP, NCI, 2025)
